US11298346B2, “Methods for treatment of fibrotic diseases” (Beta Cat Pharmaceuticals, Inc., priority 2017, dated 2022)
“And” between values parts separate entries of the source, which are not always exact repeats. Identical values can stand only once.

Experiments:
[1] = system: cell lines derived from chromic myeloid leukemia (CML) patients and cell lines and primary cells derived from myeloproliferative neoplasm (MPN) patients; conditions: background statement; cited from earlier work
[2] = system: DD180 cells; experiment: Fibroblast populated collagen lattice (FPCL) contraction assay; format: cell-based, human; conditions: ≤25 pM
Method: (§1) Tegavivint (BC-2059) powder was reconstituted it in 100% dimethyl sulfoxide (DMSO) to a 10_mM stock solution. The stock was diluted to 100 nM in serum-free media (α minimal essential medium, αMEM), and further diluted to 100 pM in serum-free αMEM immediately before the analyses were performed. Serial dilutions from 100 pM down to 0.78 pM were assessed in various assays. 0.001% DMSO in αMEM was used as the vehicle control, and αMEM alone was used as an untreated control, in a subset of analyses.
Fibroblast populated collagen lattice assays were performed on primary palmar fascia fibroblasts derived from the fibrotic palmar fascia of one patient with Dupuytren's disease (DD180) using the protocol described in Raykha, C., Crawford, J., Gan, B. S., Fu, P., Bach, L. A., and O'Gorman, D. B. (2013) IGF-II and IGFBP-6 regulate cellular contractility and proliferation in Dupuytren's disease. Biochimica et biophysica acta. 1832, 1511-9.

[3] = system: bleomycin-induced idiopathic pulmonary fibrosis (IPF); experiment: Nebulized tegavivint nanosuspension in mouse model of bleomycin-induced idiopathic pulmonary fibrosis; format: in vivo, C57BL/6 male mice
Method: The purpose of this experiment was to investigate tegavivint nanosuspension in a mouse model of bleomycin-induced idiopathic pulmonary fibrosis (IPF). Test articles 10 were as follows:
Tegavivint (BC2059) in a nano-milled suspension 25 mg/mL in 0.625% poloxamer 188 and 10% sorbitol. The compound was refrigerated at about 4° C.
Nebulizing equipment was Altera ultrasonic eRapid machine nebulizer (model #678G1002).
Animals were 8-12 week old C57BL/6 male mice (Jackson Lab, Bar Harbor, Me.).
Murine model of pulmonary fibrosis was induced by intratracheally (IT) injected bleomycin (APP Pharmaceuticals, Schaumburg, Ill.). One dose of 0.025 U bleomycin dissolved in 50 microliters of Saline 0.9%, or PBS as control was administered to each animal on day 0.
Tegavivint nanosuspension was applied to Group 3 in the form of aerosols, through the method of whole body exposure. The mice were placed inside a plastic box. This box was sealed and connected by one of its sides to the outlet of the nebulizer device, and on the other side to a system of closed water. The whole procedure was carried out inside the fume hood of the animal room. In each treatment session, 5 ml of 25 mg/ml Tegavivint (125 mg) was nebulized over 15 min to each group of 4-5 mice in the chamber. To increase exposure of the mice to the aerosol, Tegavivint that precipitated in the aerosol chamber was collected with a syringe and re-nebulized a second and a third time. Mice were nebulized twice a day between day 5 and day 21 after administration of bleomycin. Group 1 and 2 received nebulized vehicle 5 ml in the same manner.
The body weight of animals was recorded on Days 0, 5, 8, 12, 16, 19, and 21.
Measurements of lung mechanics were performed on Day 21 as previously described (Morales-Nebreda L, et al. AJRCMB 2015) on Day 21 using a FlexiVent mouse ventilator (Scireq, Montreal, PQ, Canada) according to the protocols established by Scireq. A standard ventilation history for each mouse was obtained with three total lung capacity maneuvers before the forced oscillation and quasistatic pressure-volume curve protocols that were used to calculate airway resistance, dynamic and quasistatic tissue compliance, and elastance.
On Day 21 all animals were sacrificed and lungs were harvested. Total lung collagen content was evaluated using the Hydroxyproline Assay as previously described (Morales-Nebreda L, et al. AJRCMB 2015). In brief, mouse lungs were harvested and suspended in 1 ml of 0.5 M acetic acid and then homogenized, first with a tissue homogenizer (60 s on ice) and then using 15 strokes in a Dounce homogenizer (on ice). The resulting homogenate was spun (12,000×g) for 10 minutes, and the supernatant was used for subsequent analyses. Collagen standards were prepared in 0.5 M acetic acid using rat tail collagen (Sigma-Aldrich, St. Louis, Mo.). Picrosirius red dye was prepared by mixing 0.2 g of Sirius red F3B (Sigma-Aldrich) with 200 ml of […]; 1 ml of the Picrosirius red dye was added to 100 μl of the collagen standard or the lung homogenates and then mixed continuously at room temperature on an orbital shaker for 30 minutes. The precipitated collagen was then pelleted and washed once with 0.5 M acetic acid (12,000×g for 15 min each). The resulting pellet was resuspended in 1 ml of 0.5 M NaOH and Sirius red staining was quantified spectrophotometrically (540 nm) using a colorimetric plate reader (Bio-Rad, Hercules, Calif.).

[4] = system: CTNNB1, EGR1, NRG1 and WISP1 mRNA levels; experiment: TaqMan gene expression analyses in DD180, PF180 and CT38 cells; format: cell-based, human
Method: as §1
Gene expression analyses were assessed in triplicate on a Real-Time PCR ABI Prism 7500. Total RNA samples were derived from syngeneic DD and PF cells cultured from the explant tissues from one patient with Dupuytren's disease (DD180 and PF 180) and 1 patient with no history of Dupuytren's disease (CT38) as a normal allogeneic control. RNA quality was assessed on an Agilent 2100 Bioanalyzer and 2 μg of high quality total RNA was reverse transcribed into cDNA first strand using the High-Capacity cDNA Archive Kit (Applied Biosystems) in accordance with the manufacturer's instructions. TaqMan gene expression assays were used to measure CTNNB1, EGR1, NRG1 and WISP1 mRNA levels after 48 hrs of treatment in cells cultured on type-1 collagen coated 6 well trays. The ΔΔCT method was used after confirmation of parallel PCR amplification efficiencies of target and housekeeping genes PCR reactions were carried out under the following conditions: Initial denaturation at 95° C. for 5 min followed by cycles of denaturation (95° C. for 15 sec), primer annealing (60° C. for 1 min) and transcript extension ([…]) for 40 cycles.

[5] = Group 3, inhaled tegavivint after bleomycin injury
[6] = Group 3: IT bleomycin Day 0, 5 ml of 25 mg/ml tegavivint aerosol BID Day 5-21, Day 21, individual animals
[7] = ≤25 pM, 48 hrs, DD180, PF180, CT38 cells

In the case of Tegavivint, the “apoptosis and growth inhibition” value [1] is listed as “undergo apoptosis and growth inhibition”, the effects on contractility [2] is listed as “did not identify any consistent effects” and the “body weight loss caused by bleomycin induced lung injury” value ([3]; Group 3, inhaled tegavivint) is listed as “reversed the body weight loss”. The lung compliance [3, 5] was “reversed the compliance values to near those of the sham-treated controls”, the “total lung collagen content (Hydroxyproline assay)” value [3, 5] was “reversed this change and the collagen levels are closed to sham-treated controls” and the “Compliance (ml/cm H20)” value [3, 6] was 0.05515 ml/cm H20 and 0.05604 ml/cm H20 and 0.06762 ml/cm H20 and 0.0543 ml/cm H20 and 0.0561 ml/cm H20. For the same substance, the “Hydroxyproline (μg/half lung)” value [3, 6] was 70.016 μg/half lung and 39.44 μg/half lung and 45.68 μg/half lung and 58.784 μg/half lung and 64.296 μg/half lung, the “Change in body weight (%)” value ([3]; Group 3: IT bleomycin Day 0, 5 ml of 25 mg/ml tegavivint aerosol BID Day 5-21, individual animals) was −2.83% and 5.2% and 7.3% (2×) and 7.9% and the “effects on the expression of genes that associate with nuclear β-catenin” value ([4]; cells treated with ≥25 pM) was “No discernible effects”. For the same substance, the “effects on gene expression” value ([4]; ≤25 pM) was “did not identify any consistent effects”, the CTNNB1 expression [4, 7] was “no evidence of a compensatory increase” and the EGR1 expression levels [4, 7] was “did not see any evidence of BC-2059-induced changes”. The NRG1 expression levels [4, 7] was “did not see any evidence of BC-2059-induced changes” and the WISP1 expression levels [4, 7] was “did not see any evidence of BC-2059-induced changes”.
